This note sets out measurements from US20150182456A1, “HYDROGEL VACCINE FORMULATIONS” (Sigmoid Pharma Limited, priority 2012, published 2015).

This experiment relates to Female C57/bl6 Mice. As to the kind of experiment: V. Cholerae Experiment 1: immune response in fecal pellets. In kind it is in vivo. The conditions noted are these: oral, 2.5×10^8 bacteria, 10 μg αGalCer, 3 rounds, ELISA. (ELISA stands for enzyme-linked immunosorbent assay.)

As to `CCCCCCCCCCCCCCCCCCCCCCCCCC(=O)N[C@@H](CO[C@H]1O[C@H](CO)[C@H](O)[C@H](O)[C@H]1O)[C@H](O)[C@H](O)CCCCCCCCCCCCCC` [αGalCer, α-galactosylceramide], the “anti Inaba-LPS IgA and IgG titres in fecal pellets” value is “effective adjuvant”.
